Data: patent US20250388593A1 (MITSUBISHI TANABE PHARMA CORPORATION, priority 2023, published 2025)

biological target: CRBN truncate (318-426) (Homo sapiens (Human), UniProt Q96SW2); test: Measurement of molecular interactions using surface plasmon resonance (SPR), Biacore T200; type: binding; conditions: 25° C., immobilized CRBN truncate, upper limit of measurement 200 μM
In short: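 Compound injections used 60 s association and 120 s dissociation in HEPES pH 7.5 buffer (150 mM NaCl, 1 mM TCEP, 0.005% Tween 20, 2% DMSO). The ligand was CRBN truncate 318-426 bearing a C-terminal Avi-tag, immobilised via streptavidin on an SA sensor chip.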

CRBN truncate (318-426), sequence (Q96SW2 318-426): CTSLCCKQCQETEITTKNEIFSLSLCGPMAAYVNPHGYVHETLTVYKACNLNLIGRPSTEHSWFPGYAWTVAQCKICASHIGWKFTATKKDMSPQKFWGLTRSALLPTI

Kd [µM] | Molecule
≥ 100 | CC(C)(C)OC(=O)Cn1c(=O)c(=O)n(C2CCCC(=O)NC2=O)c2ccccc21 (stereo not shown) [Example 275, tert-Butyl 2-[4-(2,7-dioxoazepan-3-yl)-2,3-dioxoquinoxalin-1-yl]acetate]
50 to 100 | CC(C)(C)OC(=O)CCc1ccc2c(c1)sc(=O)n2C1CCCC(=O)NC1=O (stereo not shown) [Example 262, tert-Butyl 3-[3-(2,7-dioxoazepan-3-yl)-2-oxo-1,3-benzothiazol-6-yl]propanoate]
≥ 100 | CC(C)(C)OC(=O)c1ccc(N2CCC3(CC2)COCC(=O)NC3=O)nc1 [Example 16, tert-Butyl 6-(10,12-dioxo-8-oxa-3,11-diazaspiro [5.6]dodecan-3-yl) pyridine-3-carboxylate]
≥ 100 | Cn1nc(N2CC=CC(=O)NC2=O)c2ccc(Br)cc21 [Example 281, 3-(6-Bromo-1-methylindazol-3-yl)-4H-1,3-diazepine-2,7-dione]
50 to 100 | CC(C)(C)OC(=O)c1ccc(CN2CCC3(CCCC(=O)NC3=O)CC2=O)cc1 (stereo not shown) [Example 111, tert-Butyl 4-[(4,7,9-trioxo-3,8-diazaspiro [5.6]dodecan-3-yl)methyl]benzoate]
< 50 | Cc1sc2c(c1C)C(c1ccc(Cl)cc1)=N[C@@H](CC(=O)NCCCCCCCCCCC(=O)N1CCC(c3cnc(N4CCC5(CCCC(=O)NC5=O)C4)nc3)CC1)c1nnc(C)n1-2 (stereo partly drawn) [Example 354, 2-[(9S)-7-(4-Chlorophenyl)-4,5,13-trimethyl-3-thia-1,8,11,12-tetraazatricyclo[8.3.0.02,6]trideca-2(6),4,7,10,12-pentaen-9-yl]-N-[11-[4-[2-(6,8-dioxo-2,7-diazaspiro[4.6]undecan-2-yl)pyrimidin-5-yl]piperidin-1-yl]-11-oxoundecyl]acetamide]
50 to 100 | Cn1c(=O)n(C2CCCC(=O)NC2=O)c2cccc(C3=CCN(C(=O)OC(C)(C)C)CC3)c21 (stereo not shown) [Example 220, tert-Butyl 4-[1-(2,7-dioxoazepan-3-yl)-3-methyl-2-oxobenzimidazol-4-yl]-3,6-dihydro-2H-pyridine-1-carboxylate]
50 to 100 | CC(C)(C)OC(=O)NCCCCCCc1cccc(C(=O)N2CCC3(CCCC(=O)NC3=O)C2)c1 (stereo not shown) [Example 158, tert-Butyl N-[6-[3-(6,8-dioxo-2,7-diazaspiro[4.6]undecane-2-carbonyl)phenyl]hexyl]carbamate]
≥ 100 | O=C1CCCC2(CCN(c3ccc(C(F)(F)F)cn3)C2)C(=O)N1 (stereo not shown) [Example 38, 2-[5-(trifluoromethyl)-2-pyridyl]-2,7-diazaspiro[4.6]undecane-6,8-dione]
≥ 100 | CC(C)(C)OC(=O)N1CCN(C2CCCC(=O)NC2=O)C(=O)C1 (stereo not shown) [Example 29-1, tert-Butyl 4-(2,7-dioxoazepan-3-yl)-3-oxopiperazine-1-carboxylate]
50 to 100 | CC1(CN2C(=O)c3ccccc3C2=O)CCCC(=O)NC1=O (stereo not shown) [Example 31, 2-[(3-Methyl-2,7-dioxoazepan-3-yl)methyl]isoindole-1,3-dione]
< 50 | NC(=O)c1nn(-c2ccc(C(=O)NCCOCCOCCNC(=O)CN3CCC4(CCCC(=O)NC4=O)CC3=O)cc2)cc1NC(=O)c1coc(-c2ccnc(NCC3CC3)c2)n1 (stereo not shown) [Example 144, N-[3-Carbamoyl-1-[4-[2-[2-[2-[[2-(4,7,9-trioxo-3,8-diazaspiro [5.6]dodecan-3-yl)acetyl]amino]ethoxy]ethoxy]ethylcarbamoyl]phenyl]pyrazol-4-yl]-2-[2-(cyclopropylmethylamino)-4-pyridyl]oxazole-4-carboxamide]
< 50 | Cc1sc2c(c1C)C(c1ccc(Cl)cc1)=N[C@@H](CC(=O)NCCCCCCCNc1ccc(N3CCC(N4CCCC(=O)NC4=O)C3=O)cc1)c1nnc(C)n1-2 (stereo partly drawn) [Example 313, 2-[(9S)-7-(4-chlorophenyl)-4,5,13-trimethyl-3-thia-1,8,11,12-tetraazatricyclo[8.3.0.02,6]trideca-2(6),4,7,10,12-pentaen-9-yl]-N-[7-[4-[3-(2,4-dioxo-1,3-diazepan-1-yl)-2-oxopyrrolidin-1-yl]anilino]heptyl]acetamide]
≥ 100 | CC(C)(C)OC(=O)NCCCNc1nccc(N2CCC3(CCCC(=O)NC3=O)C2)n1 (stereo not shown) [Example 185]
≥ 100 | 2-(3-Methyl-5-nitro-2-pyridyl)-2,7-diazaspiro[4.6]undecane-6,8-dione [Example 78]
≥ 100 | CC(C)(C)OC(=O)NCc1cn(C2CCCC(=O)NC2=O)nn1 (stereo not shown) [Example 1, tert-Butyl N-[[1-(2,7-dioxoazepan-3-yl)triazol-4-yl]methyl]carbamate]
< 50 | Cc1sc2c(c1C)C(c1ccc(Cl)cc1)=N[C@@H](CC(=O)NCCCCCCCNc1ccc(N3CCC4(CCCC(=O)NC4=O)CC3=O)cc1)c1nnc(C)n1-2 (stereo partly drawn) [Example 314, 2-[(9S)-7-(4-chlorophenyl)-4,5,13-trimethyl-3-thia-1,8,11,12-tetraazatricyclo[8.3.0.02,6]trideca-2(6),4,7,10,12-pentaen-9-yl]-N-[7-[4-(4,7,9-trioxo-3,8-diazaspiro[5.6]dodecan-3-yl)anilino]heptyl]acetamide]
< 50 | CN1C(=O)C(C)(N2C=CCC(=O)NC2=O)c2cccc(/C=C/C(=O)OC(C)(C)C)c21 (stereo not shown) [Example 289, tert-Butyl (E)-3-[3-(2,4-dioxo-5H-1,3-diazepin-1-yl)-1,3-dimethyl-2-oxoindolin-7-yl]prop-2-enoate]
50 to 100 | CC(C)(C)OC(=O)COc1cccc(C(=O)NC2CCCC(=O)NC2=O)n1 (stereo not shown) [Example 69, tert-Butyl 2-(6-((2,7-dioxoazepan-3-yl)carbamoyl)pyridin-2-yl) oxyacetate]
≥ 100 | CCOC(=O)c1cc(N2CCC3(CCCC(=O)NC3=O)C2)ncc1C(F)(F)F (stereo not shown) [Example 40, Ethyl 2-(6,8-dioxo-2,7-diazaspiro[4.6]undecan-2-yl)-5-(trifluoromethyl)pyridine-4-carboxylate]
< 50 | O=C1CCCC(n2nc(I)c3ccccc32)C(=O)N1 (stereo not shown) [Example 135, 3-(3-Iodoindazol-1-yl)azepane-2,7-dione]
≥ 100 | CC(=O)Nc1cccc(C2(F)CCCC(=O)NC2=O)c1 (stereo not shown) [Example 245, N-[3-(3-Fluoro-2,7-dioxoazepan-3-yl)phenyl]acetamide]
≥ 100 | O=C1CCC(N2C(=O)CC3(CN(C(=O)c4ccccc4)C3)C2=O)C(=O)N1 (stereo not shown) [Example 44-2, 2-Benzoyl-6-(2,6-dioxopiperidin-3-yl)-2,6-diazaspiro [3.4]octane-5,7-dione]
< 50 | Cc1sc2c(c1C)C(c1ccc(Cl)cc1)=N[C@@H](CC(=O)NCCCCCCc1ccc(C(=O)N3CCC4(CCCC(=O)NC4=O)C3)cc1Cl)c1nnc(C)n1-2 (stereo partly drawn) [Example 323, N-[6-[2-chloro-4-(6,8-dioxo-2,7-diazaspiro[4.6]undecane-2-carbonyl)phenyl]hexyl]-2-[(9S)-7-(4-chlorophenyl)-4,5,13-trimethyl-3-thia-1,8,11,12-tetraazatricyclo[8.3.0.02,6]trideca-2(6),4,7,10,12-pentaen-9-yl]acetamide]
< 50 | O=C1CCCC2(CCN(c3ccc([N+](=O)[O-])cc3F)C2)C(=O)N1 (stereo not shown) [Example 83, 2-(2-Fluoro-4-nitrophenyl)-2,7-diazaspiro[4.6]undecane-6,8-dione]
